These are literature values, as cited in article PMC12802961 (Journal of Antimicrobial Chemotherapy, 2025).

Where two headings read alike, the source gives them in different places.

The conditions of the data set: cited from earlier work.

With `NC(=O)[C@@H]1CC[C@@H]2CN1C(=O)N2OS(=O)(=O)O` [avibactam], the “Ct (threshold concentration)” value (ceftazidime/avibactam) is on record as 1 mg/L.
As for `C[C@]1(Cn2ccnn2)[C@H](C(=O)O)N2C(=O)C[C@H]2S1(=O)=O` [tazobactam], the “Ct (threshold concentration)” value (ceftolozane/tazobactam) is 0.5 mg/L.
